Results as given in patent publication EP0187355A1, “Process for preparing beta-lactam antibiotics” (E.R. Squibb & Sons, Inc., priority 1981, dated 1982).
Structures can show the parent of a compound that is named as a salt.

Assays:
Experiment in all cases: MIC, agar dilution
Format in all cases: cell-based
[1] = tested on: Acinetobacter calcoaceticus, 8333; conditions: Acinetobacter calcoaceticus, 8333, 18 h, K-10 agar, 10^4 CFU, 37°C, read-out: M.I.C.
How it was run: (§1)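 MIC, the lowest compound concentration preventing visible growth, is read after plates incubate 18 h at 37°C. Plates hold K-10 agar with twofold drug dilutions spanning 100 to 0.05 µg/ml, each spot-inoculated with 10^4 CFU.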

[2] = tested on: Citrobacter freundii, 9518; conditions: K-10 agar, 10^4 CFU, 37°C, 18 hours, read-out: M.I.C.
How it was run: as §1

[3] = tested on: Enterobacter aerogenes, 10078; conditions: Klebsiella aerogenes, 10078, 18 h, Enterobacter aerogenes, 10078; K-10 agar, 10^4 CFU, 37°C, 18 hours; read-out: M.I.C.
How it was run: as §1

Escherichia coli, 10857 = conditions: Escherichia coli, 10857, 18 h, K-10 agar, 10^4 CFU, 37°C
How it was run: as §1

Escherichia coli, 10896 = conditions: K-10 agar, 10^4 CFU, 37°C, 18 hours
How it was run: as §1

Escherichia coli, 10909 = conditions: K-10 agar, 10^4 CFU, 37°C, 18 hours
How it was run: as §1

Escherichia coli, 8294 = conditions: Escherichia coli, 8294, 18 h, K-10 agar, 10^4 CFU, 37°C
How it was run: as §1

[4] = tested on: Klebsiella aerogenes, 10440; conditions: K-10 agar, 10^4 CFU, 37°C, 18 hours, read-out: M.I.C.
How it was run: as §1

[5] = tested on: Klebsiella pneumoniae, 9527; conditions: Klebsiella pneumoniae, 9527, 18 h, K-10 agar, 10^4 CFU, 37°C, read-out: M.I.C.
How it was run: as §1

Proteus mirabilis, 3855 = conditions: Proteus mirabilis, 3855, 18 h, K-10 agar, 10^4 CFU, 37°C, read-out: M.I.C.
How it was run: as §1

Proteus rettgeri, 8479 = conditions: Providencia rettgeri, K-10 agar, 10^4 CFU, 37°C, 18 hours, read-out: M.I.C.
How it was run: as §1

Proteus vulgaris, 9416 = conditions: K-10 agar, 10^4 CFU, 37°C, 18 hours, read-out: M.I.C.
How it was run: as §1

[6] = tested on: Pseudomonas aeruginosa, 8329; conditions: K-10 agar, 10^4 CFU, 37°C, 18 hours, read-out: M.I.C.
How it was run: as §1

[7] = tested on: Pseudomonas aeruginosa, 9545; conditions: Pseudomonas aeruginosa, 9545, 18 h, K-10 agar, 10^4 CFU, 37°C, read-out: M.I.C.
How it was run: as §1

Salmonella typhosa, 1195 = conditions: Salmonella enterica, TYPHOSA, 18 h, K-10 agar, 10^4 CFU, 37°C
How it was run: as §1

[8] = tested on: Serratia marcescens, 9783; conditions: K-10 agar, 10^4 CFU, 37°C; for MIC: Serratia marcescens, 9783, 18 h, read-out: M.I.C.
How it was run: as §1

Shigella sonnei, 8449 = conditions: Shigella sonnei, 8449, 18 h, K-10 agar, 10^4 CFU, 37°C
How it was run: as §1

[9] = tested on: Staphylococcus aureus, 10165; conditions: Staphylococcus aureus, 10165; K-10 agar, 10^4 CFU, 37°C, 18 hours; read-out: M.I.C.
How it was run: as §1

[10] = tested on: Staphylococcus aureus, 1276; conditions: Staphylococcus aureus, 1276; K-10 agar, 10^4 CFU, 37°C, 18 hours; read-out: M.I.C.
How it was run: as §1

[11] = tested on: Staphylococcus aureus, 2399; conditions: Staphylococcus aureus, 2399, 18 h, Staphylococcus aureus, 2399; K-10 agar, 10^4 CFU, 37°C, 18 hours; read-out: M.I.C.
How it was run: as §1

[12] = tested on: Staphylococcus aureus, 2400; conditions: Staphylococcus aureus, 2400; K-10 agar, 10^4 CFU, 37°C, 18 hours; read-out: M.I.C.
How it was run: as §1

[13] = tested on: Streptococcus faecalis, 9011; conditions: Enterococcus faecalis; Streptococcus faecalis, 9011; K-10 agar, 10^4 CFU, 37°C, 18 hours; read-out: M.I.C.
How it was run: as §1

[14] = tested on: Enterobacter cloacae, 8236; conditions: Enterobacter cloacae, 8236, 18 h, K-10 agar, 10^4 CFU, 37°C
How it was run: (§2)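 Broth cultures grown 18-20 h at 37°C, diluted 1:100 in K-10 broth, applied by multipoint inoculator at 10^4 CFU onto K-10 agar holding twofold compound dilutions, 100 to 0.05 µg/ml final. MIC taken as lowest concentration inhibiting growth.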

Micrococcus luteus, 2495 = conditions: K-10 agar, 10^4 CFU, 37°C; for MIC: Micrococcus luteus, 2495, 18 h, read-out: M.I.C.
How it was run: as §2

[15] = tested on: Streptococcus agalactiae, 9287; conditions: Streptococcus agalactiae, 9287, 18 h, K-10 agar, 10^4 CFU, 37°C, read-out: M.I.C.
How it was run: as §2

C[C@@H]1[C@H](NC(=O)[C@H](NC(=O)N2CCN(NC(=O)OCc3ccccc3)C(=O)C2=O)c2ccccc2)C(=O)N1S(=O)(=O)O (relative stereo) [Example 20, [3S-[3α(R*),4α]]-[4-[[[2-[(4-methyl-2-oxo-1-sulfo-3-azetidinyl)amino]-2-oxo-1-phenylethyl]amino]carbonyl]-2,3-dioxo-1-piperazinyl]carbamic acid, phenylmethyl ester, potassium salt] was tested, and the MIC [1] was 50 µg/mL, the MIC [2] was 3.1 µg/mL and the MIC [3] was 6.3 µg/mL. For the same compound, the MIC (Escherichia coli, 10857) was < 0.05 µg/mL, the MIC (Escherichia coli, 10896) was 0.8 µg/mL and the MIC (Escherichia coli, 10909) was 0.4 µg/mL. The MIC (Escherichia coli, 8294) was 3.1 µg/mL, the MIC [4] was 12.5 µg/mL and the MIC [5] was 0.4 µg/mL. For the same compound, the MIC (Proteus mirabilis, 3855) was 1.6 µg/mL, the MIC (Proteus rettgeri, 8479) was 1.6 µg/mL and the MIC (Proteus vulgaris, 9416) was < 0.05 µg/mL. For the same compound, the MIC [6] was 100 µg/mL, the MIC [7] was 3.1 µg/mL and the MIC (Salmonella typhosa, 1195) was 1.6 µg/mL. For the same compound, the MIC [8] was 3.1 µg/mL, the MIC (Shigella sonnei, 8449) was 1.6 µg/mL and the MIC [9] was > 100 µg/mL. For the same compound, the MIC [10] was 6.3 µg/mL, the MIC [11] was 6.3 µg/mL and the MIC [12] was 25 µg/mL. The MIC [13] was > 100 µg/mL, the MIC [14] was 1.6 µg/mL and the MIC (Micrococcus luteus, 2495) was 3.1 µg/mL. It also gave an MIC [15] of 3.1 µg/mL.
Compound C[C@H]1[C@H](NC(=O)/C(=N\OCC(=O)O)c2csc(N)n2)C(=O)N1S(=O)(=O)O [Example 31, [3S-[3α(Z),4β]]-3-[[[(Carboxymethoxy)imino](2-amino-4-thiazolyl)acetyl]amino]-4-methyl-2-oxo-l-azetidinesulfonic acid, dipotassium salt] has an MIC [1] of 100 µg/mL, an MIC [2] of 0.2 µg/mL and an MIC [3] of 0.4 µg/mL. It also gave an MIC (Escherichia coli, 10857) of 0.2 µg/mL, an MIC (Escherichia coli, 10896) of 0.1 µg/mL and an MIC (Escherichia coli, 10909) of 0.1 µg/mL. It also gave an MIC (Escherichia coli, 8294) of 0.4 µg/mL, an MIC [4] of 0.8 µg/mL and an MIC [5] of 0.2 µg/mL. It also gave an MIC (Proteus mirabilis, 3855) of 0.2 µg/mL, an MIC (Proteus rettgeri, 8479) of 0.05 µg/mL and an MIC (Proteus vulgaris, 9416) of 0.2 µg/mL. The MIC [6] was 12.5 µg/mL, the MIC [7] was 0.8 µg/mL and the MIC (Salmonella typhosa, 1195) was 0.2 µg/mL. For the same compound, the MIC [8] was 0.4 µg/mL, the MIC (Shigella sonnei, 8449) was 0.4 µg/mL and the MIC [9] was > 100 µg/mL. For the same compound, the MIC [10] was > 100 µg/mL, the MIC [11] was > 100 µg/mL and the MIC [12] was > 100 µg/mL. The MIC [13] was > 100 µg/mL, the MIC [14] was 0.2 µg/mL and the MIC (Micrococcus luteus, 2495) was > 100 µg/mL. For the same compound, the MIC [15] was 100 µg/mL.
In the case of CON=C(C(=O)NC1C(=O)N(S(=O)(=O)O)C1C)c1csc(N)n1 (stereo not drawn) [Example 5, [3S-[3α(Z),4β]]-3-[[2-Amino-4-thiazolyl) (methoxyimino)-acetyl]amino]-4-methyl-2-oxo-1-azetidinesulfonic acid, potassium salt], the MIC [1] is reported as 12.5 µg/mL, the MIC [2] is reported as 0.1 µg/mL and the MIC [3] is reported as 0.4 µg/mL. For the same compound, the MIC (Escherichia coli, 10857) was < 0.05 µg/mL, the MIC (Escherichia coli, 10896) was 0.1 µg/mL and the MIC (Escherichia coli, 10909) was < 0.05 µg/mL. For the same compound, the MIC (Escherichia coli, 8294) was 0.1 µg/mL, the MIC [4] was 0.2 µg/mL and the MIC [5] was 0.1 µg/mL. The MIC (Proteus mirabilis, 3855) was 0.1 µg/mL, the MIC (Proteus rettgeri, 8479) was < 0.05 µg/mL and the MIC (Proteus vulgaris, 9416) was < 0.05 µg/mL. For the same compound, the MIC [6] was 100 µg/mL, the MIC [7] was 0.8 µg/mL and the MIC (Salmonella typhosa, 1195) was < 0.05 µg/mL. For the same compound, the M.I.C. ([8]; 18 hours, potassium salt) was 0.8 µg/mL, the MIC (Shigella sonnei, 8449) was 0.1 µg/mL and the MIC [9] was > 100 µg/mL. It also gave an MIC [10] of 100 µg/mL, an MIC [11] of 100 µg/mL and an MIC [12] of 50 µg/mL. The MIC [13] was > 100 µg/mL, the MIC [14] was 0.2 µg/mL and the M.I.C. (Micrococcus luteus, 2495; 18 hours, potassium salt) was 3.1 µg/mL. For the same compound, the MIC [15] was 3.1 µg/mL.
In the case of C[C@H]1[C@H](NC(=O)/C(=N\OC(C)(C)C(=O)OCc2ccc([N+](=O)[O-])cc2)c2csc(N)n2)C(=O)N1S(=O)(=O)O [Example 15, [3S-[3α(Z),4β]]-3-[[(2-Amino-4-thiazolyl)[[1,1-dimethyl-2-[(4-nitrophenyl)methoxy]-2-oxoethoxy]-imino]acetyl]amino]-4-methyl-2-oxo-1-azetidinesulfonic acid, potassium salt], the MIC [1] is reported as > 100 µg/mL, the MIC [2] is reported as 25 µg/mL and the MIC [3] is reported as 100 µg/mL. For the same compound, the MIC (Escherichia coli, 10857) was 0.4 µg/mL, the MIC (Escherichia coli, 10896) was 6.3 µg/mL and the MIC (Escherichia coli, 10909) was 6.3 µg/mL. For the same compound, the MIC (Escherichia coli, 8294) was 50 µg/mL, the MIC [4] was > 100 µg/mL and the MIC [5] was 12.5 µg/mL. For the same compound, the MIC (Proteus mirabilis, 3855) was 6.3 µg/mL, the MIC (Proteus rettgeri, 8479) was 1.6 µg/mL and the MIC (Proteus vulgaris, 9416) was 1.6 µg/mL. The MIC [6] was > 100 µg/mL, the MIC [7] was 12.5 µg/mL and the MIC (Salmonella typhosa, 1195) was 6.3 µg/mL. For the same compound, the MIC [8] was 50 µg/mL, the MIC (Shigella sonnei, 8449) was 25 µg/mL and the MIC [9] was 50 µg/mL. The MIC [10] was 6.3 µg/mL, the MIC [11] was 6.3 µg/mL and the MIC [12] was 12.5 µg/mL. For the same compound, the MIC [13] was > 100 µg/mL, the MIC [14] was 25 µg/mL and the MIC (Micrococcus luteus, 2495) was 1.6 µg/mL. It also gave an MIC [15] of 0.8 µg/mL.
